Experiment [1] addresses Serine/threonine-protein kinase OSR1 (Homo sapiens) (UniProt O95747). Description: Inhibition of OSR1 (unknown origin) at 1 uM by Ambit Kinomescan binding assay relative to control; values are per cent of control.
In experiment [2] the target is Dual specificity tyrosine-phosphorylation-regulated kinase 1A (Homo sapiens) (UniProt Q13627). Description: Inhibition of DYRK1A (unknown origin) at 1 uM by Ambit Kinomescan binding assay relative to control; values are per cent of control.
The target in experiment [3] is Mitogen-activated protein kinase 14 (Homo sapiens, UniProt Q16539). Kind of experiment: Inhibition of p38 alpha (unknown origin) at 1 uM by Ambit Kinomescan binding assay relative to control; values are per cent of control.
Sequence of Mitogen-activated protein kinase 14 (Q16539 whole entry): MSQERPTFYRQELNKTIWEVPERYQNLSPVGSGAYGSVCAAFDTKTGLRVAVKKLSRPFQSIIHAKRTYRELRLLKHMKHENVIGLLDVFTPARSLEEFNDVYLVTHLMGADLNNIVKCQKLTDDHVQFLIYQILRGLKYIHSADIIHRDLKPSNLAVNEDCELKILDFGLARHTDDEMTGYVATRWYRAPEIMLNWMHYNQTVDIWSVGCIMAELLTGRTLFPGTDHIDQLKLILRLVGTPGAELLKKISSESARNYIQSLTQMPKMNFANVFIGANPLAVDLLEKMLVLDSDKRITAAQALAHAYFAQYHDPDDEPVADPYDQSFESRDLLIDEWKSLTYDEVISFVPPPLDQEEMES
Experiment [4] concerns the target Atypical kinase COQ8A, mitochondrial (Homo sapiens) (UniProt Q8NI60). Kind of experiment: Inhibition of ADCK3 (unknown origin) at 1 uM by Ambit Kinomescan binding assay relative to control.
The target of experiment [5] is Tyrosine-protein kinase FRK (Homo sapiens) (UniProt P42685). Kind of experiment: Inhibition of FRK (unknown origin) at 1 uM by Ambit Kinomescan binding assay relative to control; values are per cent of control.
Sequence of Tyrosine-protein kinase FRK (Homo sapiens) (P42685 whole entry): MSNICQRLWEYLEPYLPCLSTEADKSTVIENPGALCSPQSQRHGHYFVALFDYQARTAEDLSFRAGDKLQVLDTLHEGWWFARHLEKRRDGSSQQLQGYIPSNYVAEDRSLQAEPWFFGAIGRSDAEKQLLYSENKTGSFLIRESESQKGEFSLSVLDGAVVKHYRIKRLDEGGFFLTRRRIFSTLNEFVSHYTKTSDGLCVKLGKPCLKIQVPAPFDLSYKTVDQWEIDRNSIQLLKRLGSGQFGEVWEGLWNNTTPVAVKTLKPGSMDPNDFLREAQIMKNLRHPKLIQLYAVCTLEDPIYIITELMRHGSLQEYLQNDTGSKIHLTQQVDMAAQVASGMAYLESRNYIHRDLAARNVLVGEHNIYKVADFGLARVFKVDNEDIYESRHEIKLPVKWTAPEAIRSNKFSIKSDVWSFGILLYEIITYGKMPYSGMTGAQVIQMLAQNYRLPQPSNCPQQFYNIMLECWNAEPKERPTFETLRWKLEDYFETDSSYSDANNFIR
Experiment [6] deals with Mast/stem cell growth factor receptor Kit (Homo sapiens), P10721 [L576P]. Kind of experiment: Inhibition of KIT L576P mutant (unknown origin) at 1 uM by Ambit Kinomescan binding assay relative to control; values are per cent of control.
Experiment [7] has as its target 1-phosphatidylinositol 3-phosphate 5-kinase (Homo sapiens) (UniProt Q9Y2I7). Description: Inhibition of PIP5K3 ATP labeling site in human A-375 cells at 5 uM by KiNativ Profiling analysis relative to control. It counts as cell-based.
The target in experiment [8] is Mitogen-activated protein kinase 10 (Homo sapiens, UniProt P53779). Description: Inhibition of JNK3 (unknown origin) at 10 uM by Ambit Kinomescan binding assay relative to control.
Experiment [9] has as its target Dual specificity mitogen-activated protein kinase kinase 1 (Homo sapiens) (UniProt Q02750). Kind of experiment: Inhibition of MEK1 (unknown origin) at 10 uM by Ambit Kinomescan binding assay.
For experiment [10], the target named is Serine/threonine-protein kinase SIK1 (Homo sapiens) (UniProt P57059). Kind of experiment: Inhibition of SIK (unknown origin) at 10 uM by Ambit Kinomescan binding assay relative to control; values are per cent of control.
The target of experiment [11] is Rho-associated protein kinase 1 (Homo sapiens) (UniProt Q13464). Kind of experiment: Inhibition of ROCK1 Lys2 labeling site in human A-375 cells at 0.05 uM by KiNativ Profiling analysis relative to control. It counts as cell-based.
Experiment [12] has as its target Tyrosine-protein kinase ABL (Homo sapiens) (UniProt P00519+P42684). Description: Inhibition of ABL1/2 K1 labeling site in human Huh-7 cells at 1 uM by KiNativ Profiling analysis relative to control. It counts as cell-based.
The target in experiment [13] is T1, Serine/threonine-protein kinase Nek1 (Homo sapiens) (UniProt Q96PY6).
T1 sequence (whole entry): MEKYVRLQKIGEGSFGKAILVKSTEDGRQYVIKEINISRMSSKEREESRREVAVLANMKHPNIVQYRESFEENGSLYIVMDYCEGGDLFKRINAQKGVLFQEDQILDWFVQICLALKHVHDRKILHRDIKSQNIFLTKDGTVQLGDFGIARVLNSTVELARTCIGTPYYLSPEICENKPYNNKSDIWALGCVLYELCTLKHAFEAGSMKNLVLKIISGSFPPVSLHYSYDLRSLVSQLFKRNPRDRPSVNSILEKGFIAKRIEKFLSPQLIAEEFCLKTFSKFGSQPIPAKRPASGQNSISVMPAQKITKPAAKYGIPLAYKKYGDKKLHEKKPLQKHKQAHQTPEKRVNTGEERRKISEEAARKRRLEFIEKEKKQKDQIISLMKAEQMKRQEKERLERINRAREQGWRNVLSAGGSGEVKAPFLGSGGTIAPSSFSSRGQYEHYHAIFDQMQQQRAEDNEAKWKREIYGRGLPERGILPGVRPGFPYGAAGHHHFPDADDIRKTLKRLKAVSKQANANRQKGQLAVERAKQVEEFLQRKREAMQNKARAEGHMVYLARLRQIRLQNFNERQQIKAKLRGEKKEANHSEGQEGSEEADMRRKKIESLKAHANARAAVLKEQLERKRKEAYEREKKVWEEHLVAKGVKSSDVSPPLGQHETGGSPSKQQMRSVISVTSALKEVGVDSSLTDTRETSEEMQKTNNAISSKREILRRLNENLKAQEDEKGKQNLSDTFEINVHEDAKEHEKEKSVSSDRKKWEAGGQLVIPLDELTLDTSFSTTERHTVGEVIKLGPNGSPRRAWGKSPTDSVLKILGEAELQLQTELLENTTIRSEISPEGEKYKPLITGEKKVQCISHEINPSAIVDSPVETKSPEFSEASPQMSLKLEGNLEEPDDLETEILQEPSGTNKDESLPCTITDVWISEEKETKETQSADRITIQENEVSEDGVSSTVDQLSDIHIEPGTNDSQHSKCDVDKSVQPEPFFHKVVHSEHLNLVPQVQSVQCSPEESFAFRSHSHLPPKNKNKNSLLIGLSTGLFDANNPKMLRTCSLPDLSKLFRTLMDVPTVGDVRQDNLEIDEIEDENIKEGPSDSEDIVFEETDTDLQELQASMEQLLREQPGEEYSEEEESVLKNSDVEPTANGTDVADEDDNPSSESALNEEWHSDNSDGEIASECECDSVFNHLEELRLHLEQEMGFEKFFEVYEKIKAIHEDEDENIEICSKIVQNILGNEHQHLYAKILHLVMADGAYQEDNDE
Description: Inhibition of NEK1 Lys2 labeling site in human A-375 cells at 0.05 uM by KiNativ Profiling analysis relative to control. It counts as cell-based.

Experiment [14] is described as follows: Inhibition of KHS1 Lys2 labeling site harbouring DIKGANILLTDHGDVK in human Huh-7 cell lysate at 1 uM by KiNativ Profiling analysis relative to control. The note with it: condition cancer.
Experiment [15] deals with STE20-like serine/threonine-protein kinase (Homo sapiens) (UniProt Q9H2G2). Description: Inhibition of SLK Lys2 labeling site harbouring IIHRDLKAGNILFTLDGDIK in human Huh-7 cell lysate at 1 uM by KiNativ Profiling analysis relative to control. It counts as subcellular.
Experiment [16] has as its target Serine/threonine-protein kinase OSR1 (Homo sapiens) (UniProt O95747). Description: Inhibition of OSR1 Lys2 labeling site in human Huh-7 cells at 1 uM by KiNativ Profiling analysis relative to control.
Experiment [17] addresses Ephrin type-A receptor 2 (Homo sapiens, UniProt P29317). Description: Inhibition of EphA2 ACT labeling site in human Huh-7 cell lysate at 1 uM by KiNativ Profiling analysis relative to control. It counts as subcellular.
In experiment [18] the target is Ribosomal protein S6 kinase alpha-5 (Homo sapiens) (UniProt O75582). Description: Inhibition of MSK1 domain1 ATP Loop labeling site in human Huh-7 cells at 1 uM by KiNativ Profiling analysis relative to control. It counts as cell-based.

These results are taken from ChEMBL document CHEMBL5696442, “Discovery of type II inhibitors of TGFβ-activated kinase 1 (TAK1) and mitogen-activated protein kinase kinase kinase kinase 2 (MAP4K2)” (J Med Chem, 2015).

Each structure is given as a SMILES string. Calls of active or inactive are those of the source. No cut-off for these calls is given here.

Sequence of Serine/threonine-protein kinase OSR1 (Homo sapiens) (O95747 whole entry, looked up): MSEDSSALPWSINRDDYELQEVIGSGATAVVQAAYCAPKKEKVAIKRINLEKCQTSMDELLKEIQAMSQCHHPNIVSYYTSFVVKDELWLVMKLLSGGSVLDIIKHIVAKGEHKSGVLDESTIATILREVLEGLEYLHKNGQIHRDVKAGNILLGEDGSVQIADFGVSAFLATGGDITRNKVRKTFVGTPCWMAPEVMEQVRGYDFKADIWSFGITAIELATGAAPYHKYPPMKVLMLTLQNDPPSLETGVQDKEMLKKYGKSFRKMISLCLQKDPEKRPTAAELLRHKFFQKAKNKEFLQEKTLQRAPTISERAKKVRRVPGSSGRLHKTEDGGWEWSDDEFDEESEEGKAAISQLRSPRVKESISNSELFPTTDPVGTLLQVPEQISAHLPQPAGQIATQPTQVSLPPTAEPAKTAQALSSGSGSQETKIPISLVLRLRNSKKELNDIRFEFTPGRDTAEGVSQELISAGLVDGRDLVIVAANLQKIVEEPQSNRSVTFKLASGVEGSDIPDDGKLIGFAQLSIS
Sequence of 1-phosphatidylinositol 3-phosphate 5-kinase (Homo sapiens) (Q9Y2I7 whole entry): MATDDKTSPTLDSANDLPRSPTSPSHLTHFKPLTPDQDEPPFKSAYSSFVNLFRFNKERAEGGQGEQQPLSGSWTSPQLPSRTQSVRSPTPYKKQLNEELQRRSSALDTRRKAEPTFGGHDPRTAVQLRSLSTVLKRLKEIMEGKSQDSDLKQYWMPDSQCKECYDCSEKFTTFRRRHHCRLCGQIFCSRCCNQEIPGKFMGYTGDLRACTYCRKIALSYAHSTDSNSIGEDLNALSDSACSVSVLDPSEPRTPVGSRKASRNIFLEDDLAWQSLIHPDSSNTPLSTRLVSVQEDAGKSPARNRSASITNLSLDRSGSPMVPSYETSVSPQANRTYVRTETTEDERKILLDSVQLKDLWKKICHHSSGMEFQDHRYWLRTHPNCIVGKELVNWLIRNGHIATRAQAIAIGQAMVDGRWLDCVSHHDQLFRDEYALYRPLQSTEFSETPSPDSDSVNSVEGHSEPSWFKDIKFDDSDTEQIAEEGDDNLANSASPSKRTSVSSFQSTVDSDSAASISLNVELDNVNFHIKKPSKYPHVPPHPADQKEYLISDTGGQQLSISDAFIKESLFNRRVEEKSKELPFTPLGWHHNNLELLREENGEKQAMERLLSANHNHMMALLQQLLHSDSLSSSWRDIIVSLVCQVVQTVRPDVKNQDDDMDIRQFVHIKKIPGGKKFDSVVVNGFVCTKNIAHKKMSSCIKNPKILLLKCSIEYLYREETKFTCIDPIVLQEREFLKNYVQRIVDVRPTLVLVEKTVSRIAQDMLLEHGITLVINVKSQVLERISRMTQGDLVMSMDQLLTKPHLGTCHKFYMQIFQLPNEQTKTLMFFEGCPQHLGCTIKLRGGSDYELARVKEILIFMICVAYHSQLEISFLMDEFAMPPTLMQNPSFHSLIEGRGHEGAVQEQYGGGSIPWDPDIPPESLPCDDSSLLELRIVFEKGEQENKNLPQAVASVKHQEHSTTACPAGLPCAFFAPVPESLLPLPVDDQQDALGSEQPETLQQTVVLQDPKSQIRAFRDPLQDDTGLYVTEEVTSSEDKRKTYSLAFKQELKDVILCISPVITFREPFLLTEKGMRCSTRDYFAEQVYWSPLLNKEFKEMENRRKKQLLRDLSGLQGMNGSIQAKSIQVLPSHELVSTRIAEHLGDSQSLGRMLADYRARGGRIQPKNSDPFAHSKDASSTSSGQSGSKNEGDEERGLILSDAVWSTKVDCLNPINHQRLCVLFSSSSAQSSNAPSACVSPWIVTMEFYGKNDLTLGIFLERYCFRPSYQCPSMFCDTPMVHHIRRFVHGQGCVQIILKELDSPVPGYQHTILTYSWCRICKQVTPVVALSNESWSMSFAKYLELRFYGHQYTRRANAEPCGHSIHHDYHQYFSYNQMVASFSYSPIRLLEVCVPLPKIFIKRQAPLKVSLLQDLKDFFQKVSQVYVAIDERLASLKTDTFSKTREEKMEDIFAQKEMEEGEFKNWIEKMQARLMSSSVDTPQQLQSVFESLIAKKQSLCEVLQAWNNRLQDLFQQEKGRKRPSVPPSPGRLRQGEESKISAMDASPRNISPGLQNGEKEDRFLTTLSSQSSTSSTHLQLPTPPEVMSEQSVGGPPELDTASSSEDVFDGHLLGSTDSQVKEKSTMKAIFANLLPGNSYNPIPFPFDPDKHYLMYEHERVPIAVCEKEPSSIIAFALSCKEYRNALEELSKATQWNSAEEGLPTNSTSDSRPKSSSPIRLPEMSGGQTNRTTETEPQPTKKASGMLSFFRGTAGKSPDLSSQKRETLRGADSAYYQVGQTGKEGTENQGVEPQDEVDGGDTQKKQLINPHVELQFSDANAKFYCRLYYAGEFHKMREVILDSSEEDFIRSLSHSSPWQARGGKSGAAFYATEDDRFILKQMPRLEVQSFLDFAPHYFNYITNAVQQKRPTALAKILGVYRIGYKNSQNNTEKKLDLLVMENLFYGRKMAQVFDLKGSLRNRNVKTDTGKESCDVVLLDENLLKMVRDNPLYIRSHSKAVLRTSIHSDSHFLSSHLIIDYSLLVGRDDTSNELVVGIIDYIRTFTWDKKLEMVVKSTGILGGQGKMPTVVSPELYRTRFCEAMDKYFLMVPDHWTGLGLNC
Sequence of Ephrin type-A receptor 2 (P29317 whole entry, the tested form may be a part): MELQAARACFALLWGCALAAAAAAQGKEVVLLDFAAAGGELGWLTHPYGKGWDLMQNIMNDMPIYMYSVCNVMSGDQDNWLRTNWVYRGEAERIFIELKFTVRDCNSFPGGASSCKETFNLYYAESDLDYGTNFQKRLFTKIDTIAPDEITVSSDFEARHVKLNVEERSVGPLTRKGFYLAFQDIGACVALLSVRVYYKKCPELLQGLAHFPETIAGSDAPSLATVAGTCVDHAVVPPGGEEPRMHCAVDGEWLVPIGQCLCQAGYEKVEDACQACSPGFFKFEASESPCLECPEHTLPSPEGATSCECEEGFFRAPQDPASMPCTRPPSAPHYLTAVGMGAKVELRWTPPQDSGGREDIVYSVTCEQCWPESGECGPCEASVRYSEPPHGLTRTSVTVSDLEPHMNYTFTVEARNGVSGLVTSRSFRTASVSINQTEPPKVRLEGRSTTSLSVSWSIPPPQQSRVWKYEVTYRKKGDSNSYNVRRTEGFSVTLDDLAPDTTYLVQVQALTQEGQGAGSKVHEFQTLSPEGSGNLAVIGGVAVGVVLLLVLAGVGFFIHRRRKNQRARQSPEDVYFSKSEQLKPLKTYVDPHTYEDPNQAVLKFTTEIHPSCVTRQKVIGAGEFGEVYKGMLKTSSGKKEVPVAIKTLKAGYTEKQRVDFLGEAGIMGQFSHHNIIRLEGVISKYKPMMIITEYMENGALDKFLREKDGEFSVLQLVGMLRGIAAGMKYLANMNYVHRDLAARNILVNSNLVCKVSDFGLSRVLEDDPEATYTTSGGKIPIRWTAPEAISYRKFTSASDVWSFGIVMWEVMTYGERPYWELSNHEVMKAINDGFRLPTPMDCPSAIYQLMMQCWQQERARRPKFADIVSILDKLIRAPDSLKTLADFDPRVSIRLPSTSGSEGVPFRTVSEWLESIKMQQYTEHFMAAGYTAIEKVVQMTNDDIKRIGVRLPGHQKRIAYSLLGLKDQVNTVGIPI
Sequence of Atypical kinase COQ8A, mitochondrial (Homo sapiens) (Q8NI60 163-647 limits assumed): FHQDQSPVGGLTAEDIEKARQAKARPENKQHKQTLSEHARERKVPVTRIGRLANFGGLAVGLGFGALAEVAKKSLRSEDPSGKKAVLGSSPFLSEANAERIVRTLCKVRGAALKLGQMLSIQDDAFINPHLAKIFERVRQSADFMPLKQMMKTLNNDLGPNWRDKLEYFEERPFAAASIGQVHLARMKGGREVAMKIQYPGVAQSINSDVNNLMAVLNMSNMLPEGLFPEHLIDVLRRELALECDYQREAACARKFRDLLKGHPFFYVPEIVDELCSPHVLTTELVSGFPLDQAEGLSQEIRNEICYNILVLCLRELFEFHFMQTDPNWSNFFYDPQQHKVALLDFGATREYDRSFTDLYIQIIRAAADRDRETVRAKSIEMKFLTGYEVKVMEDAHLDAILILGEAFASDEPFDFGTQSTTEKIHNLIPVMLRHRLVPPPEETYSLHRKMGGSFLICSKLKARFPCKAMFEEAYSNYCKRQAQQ

By inhibition is commonly meant the relative decrease from the control value, in per cent. For `CCN1CCN(Cc2ccc(NC(=O)c3ccc(C)c(/C=C/c4cnc5[nH]ccc5c4OC)c3)cc2C(F)(F)F)CC1`, the residual activity in experiment [1] came to 100%; in [2] it was 100%; in [3], 1.7%; in experiment [5] it was 3.6%; in [6], 0.15%. The inhibition in experiment [4] is 100%; in [7], 7.6%.
`CCN1CCN(Cc2ccc(NC(=O)c3ccc(C)c(Oc4ccnc5[nH]ccc45)c3)cc2C(F)(F)F)CC1`: the inhibition in experiment [8] was 12%; in [11], 6%; in experiment [12], 16.4%; in experiment [13] it was -7.1%. The inhibition entry in experiment [9] was “inactive”. In [10], this compound returned a residual activity of 5.3%.
As for `CNc1cc(Oc2cc(C(=O)Nc3cc(N4CCN(C)CC4)cc(C(F)(F)F)c3)ccc2C)ncn1`, the inhibition at 1 µM in experiment [14] is 0.5%. For the same compound, the inhibition in experiment [15] amounted to 24.8%; in experiment [16], 57.3%; in experiment [17] it was 25.1%; in [18], 11.5%.
